From patent publication US10034861B2 (priority 2016, dated 2018)
Like-named read-outs stand apart in the source and are kept apart here.

Assays:
PDE1A = PDE1A (Homo sapiens (Human), UniProt P54750); assay: biochemical; format: biochemical
From the text: (§1) Table 1 lists the IC50 value for inhibition of PDE1 by the compounds of the invention. […] PDE1 assays are described in the Experimental Section.

PDE1B = PDE1B (Homo sapiens (Human), UniProt Q01064); assay: PDE1 inhibition assay (PDE1B); format: biochemical; details: 15 nM tritium labelled cAMP, 1 hr at room temperature, SPA beads
From the text: as §1

PDE1C [1] = biological target: T1, PDE1C (Homo sapiens (Human), UniProt Q14123); assay: biochemical; details: read-out: PDE1C, inhibition at 10 μM
PDE1C [2] = biological target: T1, PDE1C; assay: biochemical; format: biochemical
From the text: as §1

[3] = 15 nM tritium labelled cAMP, 1 hr at room temperature, SPA beads

PDE1B, sequence (Q01064 whole entry): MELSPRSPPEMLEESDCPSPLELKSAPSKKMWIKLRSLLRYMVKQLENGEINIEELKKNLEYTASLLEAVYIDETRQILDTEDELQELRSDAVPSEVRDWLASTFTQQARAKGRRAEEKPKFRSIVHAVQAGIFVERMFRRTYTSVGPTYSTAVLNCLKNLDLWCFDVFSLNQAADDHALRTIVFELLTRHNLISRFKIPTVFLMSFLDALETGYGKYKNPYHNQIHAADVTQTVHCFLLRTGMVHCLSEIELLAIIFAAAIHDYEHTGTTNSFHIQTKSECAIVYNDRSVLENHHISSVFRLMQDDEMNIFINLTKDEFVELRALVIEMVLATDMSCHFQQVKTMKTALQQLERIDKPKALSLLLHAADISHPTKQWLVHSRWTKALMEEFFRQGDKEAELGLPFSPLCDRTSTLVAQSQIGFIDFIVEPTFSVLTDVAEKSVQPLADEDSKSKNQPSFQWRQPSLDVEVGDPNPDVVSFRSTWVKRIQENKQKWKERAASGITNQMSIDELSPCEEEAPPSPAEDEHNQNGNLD
PDE1A, sequence (P54750 whole entry): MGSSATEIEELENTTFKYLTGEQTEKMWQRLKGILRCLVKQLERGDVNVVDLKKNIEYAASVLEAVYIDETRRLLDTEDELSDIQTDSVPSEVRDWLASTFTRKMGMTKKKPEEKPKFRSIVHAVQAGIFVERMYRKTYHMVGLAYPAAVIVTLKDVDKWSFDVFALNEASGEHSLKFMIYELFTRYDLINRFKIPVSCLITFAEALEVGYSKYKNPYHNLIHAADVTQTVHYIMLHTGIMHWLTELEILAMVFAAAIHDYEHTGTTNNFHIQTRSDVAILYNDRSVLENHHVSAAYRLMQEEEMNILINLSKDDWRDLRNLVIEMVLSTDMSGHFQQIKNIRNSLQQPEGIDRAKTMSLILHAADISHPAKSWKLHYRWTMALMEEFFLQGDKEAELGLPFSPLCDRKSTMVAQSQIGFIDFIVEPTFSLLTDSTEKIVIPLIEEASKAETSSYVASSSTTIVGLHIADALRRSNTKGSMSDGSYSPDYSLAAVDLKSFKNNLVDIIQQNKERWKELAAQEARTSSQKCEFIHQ
T1 sequence (Q14123 whole entry): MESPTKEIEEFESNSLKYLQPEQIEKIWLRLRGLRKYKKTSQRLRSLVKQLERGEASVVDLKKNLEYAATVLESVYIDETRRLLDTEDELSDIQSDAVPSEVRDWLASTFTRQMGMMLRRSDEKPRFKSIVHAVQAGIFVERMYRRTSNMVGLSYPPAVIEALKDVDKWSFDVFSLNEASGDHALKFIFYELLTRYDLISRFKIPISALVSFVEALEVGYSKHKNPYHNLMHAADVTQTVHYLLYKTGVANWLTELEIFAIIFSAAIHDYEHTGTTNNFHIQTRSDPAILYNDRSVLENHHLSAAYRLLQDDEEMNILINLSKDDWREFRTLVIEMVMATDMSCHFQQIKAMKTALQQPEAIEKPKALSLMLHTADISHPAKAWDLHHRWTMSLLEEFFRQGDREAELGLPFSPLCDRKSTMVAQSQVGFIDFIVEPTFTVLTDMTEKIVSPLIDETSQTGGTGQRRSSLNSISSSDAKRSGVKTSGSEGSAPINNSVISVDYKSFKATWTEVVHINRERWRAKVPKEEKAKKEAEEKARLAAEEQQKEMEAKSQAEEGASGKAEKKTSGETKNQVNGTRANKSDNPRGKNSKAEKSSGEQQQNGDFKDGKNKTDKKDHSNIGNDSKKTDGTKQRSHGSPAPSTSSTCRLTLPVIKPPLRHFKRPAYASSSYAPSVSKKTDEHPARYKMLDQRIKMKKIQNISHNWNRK

CCOc1ncccc1-c1cc(NC(C)c2cnn(C)c2)c2c(cnn2C)n1 (racemic) [Example 15, 5-(2-ethoxypyridin-3-yl)-1-methyl-N-(1-(1-methyl-1H-pyrazol-4-yl)ethyl)-1H-pyrazolo[4,3-b]pyridin-7-amine]
IC50 (PDE1A; [3]): 820 nM | IC50 (PDE1B; PDE1B, IC50 (nM)): 200 nM | inhibition at 10 µM (PDE1C [1]): 36%

[2H]C([2H])(C)Oc1ncccc1-c1cc(NCc2cccnc2OC)c2c(n1)c(C)nn2C(C)C [Example 180, 5-(2-(ethoxy-1,1-d2)pyridin-3-yl)-1-isopropyl-N-((2-methoxypyridin-3-yl)methyl)-3-methyl-1H-pyrazolo[4,3-b]pyridin-7-amine]
IC50 (PDE1A): 27 nM | IC50 (PDE1C [2]): 78 nM | IC50 (PDE1B; PDE1B, IC50 (nM)): 0.77 nM

CCOc1ncccc1-c1cc(NCc2cccnc2C(F)(F)F)c2c(n1)c(C)nn2C(C)C [Example 77, 5-(2-ethoxy-3-pyridyl)-1-isopropyl-3-methyl-N-[[2-(trifluoromethyl)-3-pyridyl]methyl]pyrazolo[4,3-b]pyridin-7-amine]
IC50 (PDE1A; [3]): 21 nM | IC50 (PDE1C [2]; [3]): 64 nM | IC50 (PDE1B; read-out: PDE1B, IC50): 0.22 nM

CCOc1ncccc1-c1cc(NCc2cncnc2OC)c2c(n1)c(C)nn2C(C)C [Example 190, 5-(2-ethoxy-3-pyridyl)-1-isopropyl-N-[(4-methoxypyrimidin-5-yl)methyl]-3-methyl-pyrazolo[4,3-b]pyridin-7-amine]
IC50 (PDE1A; [3]): 74 nM | IC50 (PDE1C [2]; [3]): 94 nM | IC50 (PDE1B; read-out: PDE1B, IC50): 7.9 nM

CCCOc1ncccc1-c1cc(NCc2cnn(C)c2)c2c(n1)c(C)nn2C(C)C [Example 94, 1-isopropyl-3-methyl-N-[(1-methylpyrazol-4-yl)methyl]-5-(2-propoxy-3-pyridyl)pyrazolo[4,3-b]pyridin-7-amine]
IC50 (PDE1A; [3]): 1.4 nM | IC50 (PDE1C [2]; [3]): 4.9 nM | IC50 (PDE1B; read-out: PDE1B, IC50): 0.065 nM

COc1ccc(CNc2cc(-c3cccnc3OC)nc3c(C)nn(C(C)C)c23)cn1 [Example 96, 1-isopropyl-5-(2-methoxy-3-pyridyl)-N-[(6-methoxy-3-pyridyl)methyl]-3-methyl-pyrazolo[4,3-b]pyridin-7-amine]
IC50 (PDE1A; [3]): 18 nM | IC50 (PDE1C [2]; [3]): 5.3 nM | IC50 (PDE1B; read-out: PDE1B, IC50): 3.8 nM

Cc1nn(C(C)C)c2c(NCc3cnn(C)c3)cc(N3CC(C)OC3=O)nc12 (stereo not drawn) [Example 150, 3-[1-isopropyl-3-methyl-7-[(1-methylpyrazol-4-yl)methylamino]pyrazolo[4,3-b]pyridin-5-yl]-5-methyl-oxazolidin-2-one]
IC50 (PDE1A; [3]): 44 nM | IC50 (PDE1C [2]; [3]): 13 nM | IC50 (PDE1B; read-out: PDE1B, IC50): 33 nM

CCOc1ncccc1-c1cc(NCc2cn(C)c(C)n2)c2c(n1)c(C)nn2C(C)C [Example 51, N-((1,2-dimethyl-1H-imidazol-4-yl)methyl)-5-(2-ethoxypyridin-3-yl)-1-isopropyl-3-methyl-1H-pyrazolo[4,3-b]pyridin-7-amine 2,2,2-trifluoroacetate]
IC50 (PDE1A; [3]): 53 nM | IC50 (PDE1C [2]; [3]): 88 nM | IC50 (PDE1B; read-out: PDE1B, IC50): 9.1 nM

CCOc1ncccc1-c1cc(NCc2noc(C)n2)c2c(n1)c(C)nn2C(C)C [Example 52, 5-(2-ethoxy-3-pyridyl)-1-isopropyl-3-methyl-N-[(5-methyl-1,2,4-oxadiazol-3-yl)methyl]pyrazolo[4,3-b]pyridin-7-amine]
IC50 (PDE1A; [3]): 1.9 nM | IC50 (PDE1C [2]; [3]): 4.4 nM | IC50 (PDE1B; read-out: PDE1B, IC50): 0.17 nM

CCOc1ncccc1-c1cc(NCc2cnn(C)c2)c2c(n1)c(C)nn2CC [Example 48, 5-(2-ethoxypyridin-3-yl)-1-ethyl-3-methyl-N-((1-methyl-1H-pyrazol-4-yl)methyl)-1H-pyrazolo[4,3-b]pyridin-7-amine]
IC50 (PDE1A; [3]): 38 nM | IC50 (PDE1C [2]; [3]): 170 nM | IC50 (PDE1B; read-out: PDE1B, IC50): 6.3 nM

CCOc1ncccc1-c1cc(NCc2cnn(C)n2)c2c(n1)c(C)nn2C(C)C [Example 5, 5-(2-ethoxy-3-pyridyl)-1-isopropyl-3-methyl-N-[(2-methyltriazol-4-yl)methyl]pyrazolo[4,3-b]pyridin-7-amine]
IC50 (PDE1A; [3]): 11 nM | IC50 (PDE1C [2]; [3]): 28 nM | IC50 (PDE1B; read-out: PDE1B, IC50): 1.8 nM

Cc1nn(C(C)C)c2c(NCc3cnn(C)c3)cc(-c3cnnn3C)nc12 [Example 169, 1-isopropyl-3-methyl-N-[(1-methylpyrazol-4-yl)methyl]-5-(3-methyltriazol-4-yl)pyrazolo[4,3-b]pyridin-7-amine]
IC50 (PDE1A; [3]): 610 nM | IC50 (PDE1C [2]; [3]): 170 nM | IC50 (PDE1B; read-out: PDE1B, IC50): 85 nM

CCOc1ncccc1-c1cc(NCc2cc(OC)ncn2)c2c(n1)c(C)nn2C(C)C [Example 179, 5-(2-ethoxy-3-pyridyl)-1-isopropyl-N-[(6-methoxypyrimidin-4-yl)methyl]-3-methyl-pyrazolo[4,3-b]pyridin-7-amine]
IC50 (PDE1A; [3]): 2.8 nM | IC50 (PDE1C [2]; [3]): 7 nM | IC50 (PDE1B; read-out: PDE1B, IC50): 0.51 nM

CCOc1ncccc1-c1cc(NCc2csc(C)n2)c2c(n1)c(C)nn2C1COC1 [Example 113, 5-(2-ethoxy-3-pyridyl)-3-methyl-N-[(2-methylthiazol-4-yl)methyl]-1-(oxetan-3-yl)pyrazolo[4,3-b]pyridin-7-amine]
IC50 (PDE1A; [3]): 110 nM | IC50 (PDE1C [2]; [3]): 130 nM | IC50 (PDE1B; read-out: PDE1B, IC50): 5.7 nM

COc1ncccc1CNc1cc(-c2cccnc2C(F)(F)F)nc2c(C)nn(C(C)C)c12 [Example 183, 1-isopropyl-N-((2-methoxypyridin-3-yl)methyl)-3-methyl-5-(2-(trifluoromethyl)pyridin-3-yl)-1H-pyrazolo[4,3-b]pyridin-7-amine]
IC50 (PDE1A; [3]): 290 nM | IC50 (PDE1C [2]; [3]): 350 nM | IC50 (PDE1B; read-out: PDE1B, IC50): 38 nM

CCCOc1ncccc1-c1cc(NCc2nnn(C)n2)c2c(n1)c(C)nn2C(C)C [Example 93, 1-isopropyl-3-methyl-N-[(2-methyltetrazol-5-yl)methyl]-5-(2-propoxy-3-pyridyl)pyrazolo[4,3-b]pyridin-7-amine]
IC50 (PDE1A; [3]): 4.3 nM | IC50 (PDE1C [2]; [3]): 17 nM | IC50 (PDE1B; read-out: PDE1B, IC50): 0.96 nM

CCOc1ncccc1-c1cc(NCc2cccnc2F)c2c(n1)c(C)nn2C(C)C [Example 85, 5-(2-ethoxy-3-pyridyl)-N-[(2-fluoro-3-pyridyl)methyl]-1-isopropyl-3-methyl-pyrazolo[4,3-b]pyridin-7-amine]
IC50 (PDE1A; [3]): 8.4 nM | IC50 (PDE1C [2]; [3]): 27 nM | IC50 (PDE1B; read-out: PDE1B, IC50): 0.22 nM

CCOc1ncccc1-c1cc(NCc2nccnc2OC)c2c(n1)c(C)nn2C(C)C [Example 91, 5-(2-ethoxy-3-pyridyl)-1-isopropyl-N-[(3-methoxypyrazin-2-yl)methyl]-3-methyl-pyrazolo[4,3-b]pyridin-7-amine]
IC50 (PDE1A; [3]): 27 nM | IC50 (PDE1C [2]; [3]): 70 nM | IC50 (PDE1B; read-out: PDE1B, IC50): 2.3 nM

CCOc1ncccc1-c1cc(CCc2cncc(OC)c2)c2c(n1)c(C)nn2C(C)C [Example 159, 5-(2-ethoxy-3-pyridyl)-1-isopropyl-7-[2-(5-methoxy-3-pyridyl)ethyl]-3-methyl-pyrazolo[4,3-b]pyridine]
IC50 (PDE1A; [3]): 270 nM | IC50 (PDE1C [2]; [3]): 1600 nM | IC50 (PDE1B; read-out: PDE1B, IC50): 70 nM

CCOc1ncccc1-c1cc(NCc2c[nH]c(C)n2)c2c(n1)c(C)nn2C(C)C [Example 46, 5-(2-ethoxypyridin-3-yl)-1-isopropyl-3-methyl-N-((2-methyl-1H-imidazol-4-yl)methyl)-1H-pyrazolo[4,3-b]pyridin-7-amine]
IC50 (PDE1A; [3]): 5 nM | IC50 (PDE1C [2]; [3]): 9.7 nM | IC50 (PDE1B; read-out: PDE1B, IC50): 0.42 nM

Cc1nn(C(C)C)c2c(NCc3cnn(C)c3)cc(N3CCC3=O)nc12 [Example 152, 1-[1-isopropyl-3-methyl-7-[(1-methylpyrazol-4-yl)methylamino]pyrazolo[4,3-b]pyridin-5-yl]azetidin-2-one]
IC50 (PDE1A; [3]): 48 nM | IC50 (PDE1C [2]; [3]): 61 nM | IC50 (PDE1B; read-out: PDE1B, IC50): 32 nM

CCCOc1ncccc1-c1cc(NCc2cn(C)cn2)c2c(n1)c(C)nn2C(C)C [Example 142, 1-isopropyl-3-methyl-N-[(1-methylimidazol-4-yl)methyl]-5-(2-propoxy-3-pyridyl)pyrazolo[4,3-b]pyridin-7-amine]
IC50 (PDE1A; [3]): 0.26 nM | IC50 (PDE1C [2]; [3]): 0.8 nM | IC50 (PDE1B; read-out: PDE1B, IC50): 0.1 nM

CCOc1ncccc1-c1cc(NCc2cncc(OC)c2)c2c(n1)c(C)nn2C(C)C [Example 106, 5-(2-ethoxy-3-pyridyl)-1-isopropyl-N-[(5-methoxy-3-pyridyl)methyl]-3-methyl-pyrazolo[4,3-b]pyridin-7-amine]
IC50 (PDE1A; [3]): 2.1 nM | IC50 (PDE1C [2]; [3]): 3.9 nM | IC50 (PDE1B; read-out: PDE1B, IC50): 0.45 nM

CCOc1ncccc1-c1cc(NCc2cn[nH]c2)c2c(n1)c(C)nn2C(C)C [Example 7, 5-(2-ethoxy-3-pyridyl)-1-isopropyl-3-methyl-N-(1H-pyrazol-4-ylmethyl)pyrazolo[4,3-b]pyridin-7-amine]
IC50 (PDE1A; [3]): 21 nM | IC50 (PDE1C [2]; [3]): 37 nM | IC50 (PDE1B; read-out: PDE1B, IC50): 1.1 nM

COc1ncccc1-c1cc(NCc2cccnc2C(F)(F)F)c2c(n1)c(C)nn2C(C)C [Example 170, 1-isopropyl-5-(2-methoxy-3-pyridyl)-3-methyl-N-[[2-(trifluoromethyl)-3-pyridyl]methyl]pyrazolo[4,3-b]pyridin-7-amine]
IC50 (PDE1A; [3]): 42 nM | IC50 (PDE1C [2]; [3]): 46 nM | IC50 (PDE1B; read-out: PDE1B, IC50): 5.3 nM
